Columns and labels:
Settings in all cases: 72 h
HepG2 [1] = assay: drug sensitivity score (DSS) for viability; higher = more toxic; extreme values may be limits of the assay
Calu-3 [2] = assay: as above
Vero E6 [3] = assay: as above
U2OS [4] = assay: as above
Calu-3 [5] = assay: relative viability EC50 (midpoint between 100% and the lowest measured viability); higher = less toxic
Caco-2 [6] = assay: as above
U2OS [7] = assay: as above
Caco-2 [8] = assay: drug sensitivity score (DSS) for viability; higher = more toxic; extreme values may be limits of the assay
HepG2 [9] = assay: cell viability relative to DMSO; higher = less toxic
Calu-3 [10] = assay: as above
Caco-2 [11] = assay: as above
Vero E6 [12] = assay: as above
U2OS [13] = assay: as above
HepG2 [14] = assay: relative viability EC50 (midpoint between 100% and the lowest measured viability); higher = less toxic

Row | SMILES | drug sensitivity score (HepG2 [1]) | drug sensitivity score (Calu-3 [2]) | drug sensitivity score (Vero E6 [3]) | drug sensitivity score (U2OS [4]) | relative viability EC50 (Calu-3 [5]) [µM] | relative viability EC50 (Caco-2 [6]) [µM] | relative viability EC50 (U2OS [7]) [µM] | drug sensitivity score (Caco-2 [8]) | cell viability (HepG2 [9]; 1 nM) [%] | cell viability (HepG2 [9]; 10 nM) [%] | cell viability (HepG2 [9]; 100 nM) [%] | cell viability (HepG2 [9]; 1000 nM) [%] | cell viability (HepG2 [9]; 10000 nM) [%] | cell viability (Calu-3 [10]; 1 nM) [%] | cell viability (Calu-3 [10]; 10 nM) [%] | cell viability (Calu-3 [10]; 100 nM) [%] | cell viability (Calu-3 [10]; 1000 nM) [%] | cell viability (Calu-3 [10]; 10000 nM) [%] | cell viability (Caco-2 [11]; 1 nM) [%] | cell viability (Caco-2 [11]; 10 nM) [%] | cell viability (Caco-2 [11]; 100 nM) [%] | cell viability (Caco-2 [11]; 1000 nM) [%] | cell viability (Caco-2 [11]; 10000 nM) [%] | cell viability (Vero E6 [12]; 1 nM) [%] | cell viability (Vero E6 [12]; 10 nM) [%] | cell viability (Vero E6 [12]; 100 nM) [%] | cell viability (Vero E6 [12]; 1000 nM) [%] | cell viability (Vero E6 [12]; 10000 nM) [%] | cell viability (U2OS [13]; 1 nM) [%] | cell viability (U2OS [13]; 10 nM) [%] | cell viability (U2OS [13]; 100 nM) [%] | cell viability (U2OS [13]; 1000 nM) [%] | cell viability (U2OS [13]; 10000 nM) [%] | relative viability EC50 (HepG2 [14]) [µM]
1 | CN1C[C@@H]2C[C@H]1CN2c1cc2c(cc1F)c(=O)c(C(=O)O)cn2C1CC1 [danofloxacin] | 0 | 0 | 0 | 0 |  |  |  |  |  |  |  |  |  |  |  |  |  |  |  |  |  |  |  |  |  |  |  |  |  |  |  |  |  | 
2 | CNc1cc2c(Nc3cccc(Br)c3)ncnc2cn1 | 1.6 | 9.5 | 6.2 | 0 | 0.47 | 1.55 | > 10 | 4.4 | 93.8 | 105 | 95.9 | 100 | 64.9 | 101 | 98.4 | 93.9 | 53.5 | 37.7 | 102 | 92.5 | 91.2 | 84.5 | 49.7 | 92.4 | 97.3 | 88.4 | 72.4 | 53.1 | 99.4 | 97.6 | 98.3 | 92.2 | 89.6 | 
3 | CC(C)(C)NCC(O)COc1ccc(NC(=O)NC2CCCCC2)cc1 (stereo not given) [talinolol] | 0 | 0 | 0 | 0 |  |  |  |  |  |  |  |  |  |  |  |  |  |  |  |  |  |  |  |  |  |  |  |  |  |  |  |  |  | 
4 | CCCCCCCCCC(=O)OC1(c2ccc(Cl)cc2)CCN(CCCC(=O)c2ccc(F)cc2)CC1 [haloperidol-decanoate] | 0 | 0 |  | 0 | > 10 | > 10 | > 10 | 0 | 112 | 108 | 106 | 112 | 97.1 | 103 | 105 | 112 | 99.8 | 114 | 104 | 104 | 104 | 93.5 | 105 |  |  |  |  |  | 107 | 101 | 104 | 101 | 99.2 | > 10
5 | CN[C@@H](C)C(=O)N[C@H]1CCCC[C@H]2CC[C@@H](C(=O)N[C@@H](c3ccccc3)c3cn(CCCCc4ccc(CCCCn5cc([C@@H](NC(=O)[C@@H]6CC[C@@H]7CCCC[C@H](NC(=O)[C@H](C)NC)C(=O)N76)c6ccccc6)nn5)cc4)nn3)N2C1=O [SM-164] | 0 | 0.9 |  | 0 | > 10 | > 10 | > 10 | 2.7 | 106 | 104 | 98.6 | 96.9 | 90.1 | 103 | 90 | 99 | 89.2 | 81.3 | 105 | 109 | 85.5 | 84 | 98.4 |  |  |  |  |  | 99.5 | 108 | 102 | 98.8 | 99.7 | > 10
6 | Cn1c(=O)c2c(ncn2C)n(C)c1=O [caffeine] | 0 | 0 | 0 | 0 |  |  |  |  |  |  |  |  |  |  |  |  |  |  |  |  |  |  |  |  |  |  |  |  |  |  |  |  |  | 
7 | COc1cc(S(C)(=O)=O)ccc1Nc1nc2ccc(-c3ccc(NC(=O)[C@H](C)c4ccc(F)cc4)cc3)cn2n1 [Mps1-IN-5] | 7.9 | 0 | 6.6 | 6.7 | > 10 | > 10 |  | 2.9 | 106 | 108 | 106 | 56.2 | 49.2 | 101 | 94.6 | 94.6 | 101 | 91.8 | 97.7 | 96.4 | 103 | 78.2 | 87.4 | 101 | 97 | 95.2 | 66.4 | 71.5 | 99.9 | 99.6 | 94.2 | 66.7 | 70.6 | 0.508
8 | O=P1(NCCCl)OCCCN1CCCl (stereo not given) [ifosfamide] | 0 | 0 |  |  | > 10 | > 10 |  | 0 | 107 | 98.1 | 95.9 | 102 | 109 | 95.2 | 104 | 97.7 | 95.5 | 88.7 | 104 | 107 | 94.1 | 95.4 | 101 |  |  |  |  |  |  |  |  |  |  | > 10
9 | O=C(O)c1cc(=O)c2ccccc2o1 [chromocarb] | 0 | 0 |  |  | > 10 | > 10 |  | 0 | 114 | 106 | 114 | 98.5 | 110 | 81.8 | 93.2 | 86.8 | 103 | 93.7 | 99.8 | 109 | 104 | 110 | 108 |  |  |  |  |  |  |  |  |  |  | > 10
10 | C[C@@H](O)[C@H]1C(=O)N2C(C(=O)O)=C(S[C@@H]3CN[C@H](C(=O)N(C)C)C3)[C@H](C)[C@H]12 [meropenem] |  | 0 |  | 0 | > 10 | > 10 | > 10 | 0.1 |  |  |  |  |  | 96.1 | 109 | 88.9 | 104 | 98.5 | 83.8 | 99.6 | 91.3 | 111 | 84.3 |  |  |  |  |  | 101 | 102 | 99.9 | 104 | 102 | 
11 | COc1cc2c(NC3CCN(CC4CCCCC4)CC3)nc(N3CCCN(C(C)C)CC3)nc2cc1OCCCN1CCCCC1 [UNC0631] | 6.1 | 4.3 | 3.8 | 1.2 | 3.36 | > 10 |  | 1.6 | 104 | 111 | 100 | 96.3 | 0.2 | 103 | 97.2 | 104 | 103 | 18.9 | 97.7 | 104 | 103 | 84.4 | 83.2 | 93.4 | 97.1 | 88.6 | 93 | 50.9 | 102 | 102 | 102 | 98.7 | 74.2 | 2.89
12 | Nc1cc(F)ccc1NC(=O)/C=C/c1cnn(C/C=C/c2ccccc2)c1 [RGFP966] | 4.4 | 4.1 | 2.2 | 2.2 |  | > 10 |  | 1.4 | 93.2 | 105 | 96.4 | 87.2 | 52.4 | 99.3 | 106 | 89.2 | 87.6 | 51.4 | 100 | 98.9 | 92.6 | 91.2 | 76.7 | 104 | 106 | 105 | 95.9 | 66.2 | 92.9 | 104 | 92.2 | 89.5 | 68.6 | 
13 | COc1ccc(-c2ccc3c(N4CCOCC4)nc(N4C[C@@H](C)O[C@@H](C)C4)nc3n2)cc1CO | 7.2 | 10.1 | 4.6 | 5.1 |  |  |  |  |  |  |  |  |  |  |  |  |  |  |  |  |  |  |  |  |  |  |  |  |  |  |  |  |  | 
14 | CN1C[C@@H]2CN(c3ccc(-c4ccccc4)nn3)C[C@@H]2C1 | 0 | 0 |  |  | > 10 | > 10 |  | 0 | 104 | 97.3 | 110 | 98.9 | 96 | 90.3 | 100 | 97.6 | 98.6 | 91.6 | 105 | 104 | 101 | 103 | 99.5 |  |  |  |  |  |  |  |  |  |  | > 10
15 | CNC(=O)c1cc(Oc2ccc(NC(=O)Nc3ccc(Cl)c(C(F)(F)F)c3)c(F)c2)ccn1 [regorafenib] | 9.3 | 0.8 | 1.8 | 2.4 |  |  |  | 1.2 | 102 | 106 | 94.4 | 59.8 | 16.5 | 102 | 98.8 | 105 | 104 | 74.2 | 100 | 105 | 97 | 108 | 66.3 | 94.7 | 98.9 | 104 | 102 | 60.6 | 96.9 | 103 | 100 | 99.8 | 54.5 | 1.03
16 | CC#CC(=O)N1CC[C@@H](n2c(=O)n(-c3ccc(Oc4ccccc4)cc3)c3c(N)ncnc32)C1 [ONO-4059] | 0 | 14.8 | 3.9 | 0 | 0.121 |  | > 10 | 4.4 | 96.7 | 99.3 | 89.6 | 102 | 101 | 91.2 | 96.7 | 73.6 | 36 | 41.3 | 97.6 | 87 | 93.9 | 73.8 | 73.7 | 89.5 | 97.4 | 90.7 | 80.2 | 68.2 | 101 | 91.4 | 103 | 92.5 | 93.6 | > 10
